Read-outs that look alike come from different tables or passages of the source.
Columns and labels:
HsRAD51 = target: T1, HsRAD51 (Homo sapiens, UniProt Q06609); assay: Surface plasmon resonance (SPR) binding to immobilized RAD51; conditions: 25 °C, equilibrium analysis, ± SD, read-out: KD, equilibrium dissociation constant of direct binding to hRAD51
T1 sequence (Q06609 1-339): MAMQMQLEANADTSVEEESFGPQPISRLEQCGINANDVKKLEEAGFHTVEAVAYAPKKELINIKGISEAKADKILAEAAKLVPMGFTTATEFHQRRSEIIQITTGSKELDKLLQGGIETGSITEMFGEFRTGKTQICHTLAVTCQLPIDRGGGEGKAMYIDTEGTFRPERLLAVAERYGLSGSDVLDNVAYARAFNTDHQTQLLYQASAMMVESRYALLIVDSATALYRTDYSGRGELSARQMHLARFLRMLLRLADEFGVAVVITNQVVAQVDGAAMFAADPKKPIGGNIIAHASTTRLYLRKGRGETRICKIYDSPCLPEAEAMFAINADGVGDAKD
Experimental: The binding of RAD51i to RAD51 was examined using a ProteOn XPR36 SPR Protein Interaction Array System (Bio-Rad, Hercules, CA, USA) at 25 °C. ProteOn GLH sensor chips were preconditioned with two 10 s pulses of 50 mM NaOH, 100 mM HCl, and 0.5% SDS followed by the system equilibration with the running buffer (20 mM sodium phosphate, 150 mM NaCl, and 0.005% Tween 20, pH 7.4). The surface of a GLH sensorchip was subsequently activated with a 1:100 dilution of a 1:1 mixture of 0.2 M EDC and 0.05 M Sulfo-NHS. Purified HsRAD51 was diluted to 500 µg/mL in 10 mM sodium acetate, pH 5.5, and injected immediately after chip activation across the ligand flow channels at 30 µL/min for 5 min. Unreacted protein was washed out, and the excess of unreacted ester groups on the sensor surface was capped by an injection of 1 M ethanolamine-HCl, pH 8.0, at 5 µL/min for 5 min. A reference surface to correct for nonspecific binding was similarly created by immobilizing an IgG b12 anti-HIV-1 gp120 antibody (IgG b12 anti-HIV-1 gp120; was obtained through the NIH AIDS Reagent Program, Division of AIDS, NIAID, NIH: Anti-HIV-1 gp120 Monoclonal (IgG1 b12) from Drs. Dennis Burton and Carlos Barbas). Serial dilutions of the compounds were prepared in the running buffer supplemented with 8% DMSO and injected at a flow rate of 100 μL/min for a 1 min association phase, followed by a 5 min dissociation phase using the “one-shot kinetics” functionality of the ProteOn instrument. Data were analyzed with ProteOn Manager Software version 3.0 (Bio-Rad; Hercules, CA, USA). The responses from the reference flow cell were subtracted to account for the non-specific binding and injection artifacts. Experiments were repeated at least three times. The equilibrium dissociation constants (KD) for the interactions were calculated in ProteOn Manager Version 3.1.0.6 (Bio-Rad; Hercules, CA, USA) using the equilibrium analysis function.

MDA-MB-231 cells [1] = assay: EdU cell proliferation assay, MDA-MB-231; format: cell-based, human; conditions: 24 h
Experimental: Exponentially growing MDA-MB-231 and MCF 10A cells were seeded into 6-well plates at a density of 1.5 × 10^5 cells/well in the presence of indicated concentrations of B02-iso or 0.1% DMSO (for control cells). After 24 h of incubation, cells were labeled with 10 µM Edu (Invitrogen; Waltham, […], USA) for 1 h or left unlabeled in the control. Cells were harvested and centrifuged at 500× g, 4 °C for 5 min, and cell pellets were washed with PBS supplemented with 1% BSA, spun down, and fixed with 4% methanol-free formaldehyde (Pierce) in PBS for 15 min. Cells were washed with PBS containing 1% BSA, centrifuged 500× g for 5 min. Cell pellets were resuspended in PBS containing 0.1% Triton X-100 and incubated for 15 min for permeabilization. Cells were spun down, resuspended in freshly prepared Edu click labeling solution (1 mM CuSO4, 1.25 µM Alexa Fluor 488 Azide (Invitrogen; Waltham, […], USA), 50 mM ascorbic acid in PBS) and incubated for 30 min in the dark. Cells were washed twice with PBS containing 0.1% Triton X-100, resuspended in the same buffer, and analyzed for Edu incorporation by flow cytometry using the Guava easyCyte system (Millipore; Burlington, VT, USA) with the InCyte software (Millipore; Burlington, VT, USA).

MDA-MB-231 cells [2] = assay: Cell viability assay (Guava ViaCount flow cytometry), MDA-MB-231; format: cell-based, human; conditions: for IC50: read-out: IC50 of cell viability
Experimental: For all cell viability experiments, except experiments involving MMS treatment, cells were seeded into the media containing indicated concentrations of tested compounds or corresponding amounts of DMSO in controls. The concentration of DMSO in media was 0.1%. MDA-MB-231 cells were seeded into 24-well plates at 3.5 × 10^4 cells/well for cells for a 4-day treatment or at 5000 cells/well for a 10-day treatment. MCF 10A cells were seeded into 24-well plates at 1.5 × 10^4 cells/well for a 4-day treatment or at 500 cells/well for a 10-day treatment. In the case of 10-day treatments, the media with compounds were renewed twice on the 4th and the 7th days of treatments. After completion of the treatments, cells were harvested, and their viability was determined by flow cytometry with Guava ViaCount reagent (Luminex; Austin, TX USA). Data were analyzed using the Guava ViaCount software (Millipore; Burlington, VT, USA). The IC50 values were calculated using the GraphPad Prism 5 software (San Diego, CA, USA).

For `O=c1nc(/C=C/c2cccnc2)n(Cc2ccccc2)c2ccccc12` [B02-iso], the Kd (HsRAD51) was 14.6 ± 6.2 µM, the “Fraction of DNA-replicating cells (EdU)” value (MDA-MB-231 cells [1]; MDA-MB-231, 4 µM) was “remained unchanged” and the “Reduction of fraction of DNA-replicating cells (EdU)” value (MDA-MB-231 cells [1]; MDA-MB-231, 8 µM) was “approximately 20%”. For the same molecule, the inhibition at 2 µM (MDA-MB-231 cells [2]; Homo sapiens, 96 h, MDA-MB-231, 2 µM, 4-day treatment, read-out: Growth inhibition) was less than 5%, the IC50 (MDA-MB-231 cells [2]; Homo sapiens, MDA-MB-231, 96 h, MDA-MB-231, 4-day treatment) was 4.1 µM and the IC50 (MDA-MB-231 cells [2]; Homo sapiens, MDA-MB-231, 240 h, MDA-MB-231, 10-day treatment, compound alone) was 2.6 µM. For the same molecule, the “Effect on cell viability, compound alone” value (MDA-MB-231 cells [2]; MDA-MB-231, 1.8 µM, 10-day treatment) was “does not impair cell viability” and the “Fold increase in efficiency of olaparib killing” value (MDA-MB-231 cells [2]; MDA-MB-231, 10-day treatment, 1.8 µM B02-iso) was 2.4 fold.

Source: publication PMC8235719, “New RAD51 Inhibitors to Target Homologous Recombination in Human Cells” (Genes, 2021)
